Drawing on patent US8802661B2, “C-28 amides of modified C-3 betulinic acid derivatives as HIV maturation inhibitors” (priority 2010, dated 2014), this text covers EC50 for 16 compounds.

Counter-ions that a name gives are not always drawn.

One test deals with recombinant NL4-3 virus (Renilla luciferase in nef, Gag P373S). Nature of the test: HIV Cell Culture Assay (luciferase reporter virus in MT-2 cells). The format is cell-based. As to conditions: NL43. A digest of the protocol:
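First, reporter virus was generated in 293T cells and titered on MT-2 cells. Next, MT-2 cells were infected in the presence of serial compound dilutions for 4-5 days. Finally, cells were lysed and luciferase activity was measured to quantify inhibition.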
Regarding `C=C(C)[C@@H]1CC[C@]2(C(=O)N[C@@H](C)C(=O)O)CC[C@]3(C)[C@H](CC[C@@H]4[C@@]5(C)CC=C(c6ccc(C(=O)O)cc6)C(C)(C)[C@@H]5CC[C@]43C)[C@@H]12` [Example 57, 4-((1R,3aS,5aR,5bR,7aR,11aS,11bR,13aR,13bR)-3a-((S)-1-carboxyethylcarbamoyl)-5a,5b,8,8,11a-pentamethyl-1-(prop-1-en-2-yl)-2,3,3a,4,5,5a,5b,6,7,7a,8,11,11a,11b,12,13,13a,13b-octadecahydro-1H-cyclopenta[a]chrysen-9-yl)benzoic acid], the EC50 – broadly, the concentration that produces a half-maximal response – was 700 nM. On the same count and under the same terms, the figure for `C=C(C)[C@@H]1CC[C@]2(C(=O)NCCN3CCS(=O)(=O)CC3)CC[C@]3(C)[C@H](CC[C@@H]4[C@@]5(C)CC=C(c6ccc(B(O)O)cc6)C(C)(C)[C@@H]5CC[C@]43C)[C@@H]12` [Example 130, (4-((1R,3aS,5aR,5bR,7aR,11aS,11bR,13aR,13bR)-3a-((2-(1,1-dioxidothiomorpholino)ethyl)carbamoyl)-5a,5b,8,8,11a-pentamethyl-1-(prop-1-en-2-yl)-2,3,3a,4,5,5a,5b,6,7,7a,8,11,11a,11b,12,13,13a,13b-octadecahydro-1H-cyclopenta[a]chrysen-9-yl)phenyl)boronic acid, TFA] is 13.4 nM.

The same test, now with this note: NL43, read-out: EC50 Group.
In the case of `C=C(C)[C@@H]1CC[C@]2(C(=O)NC(C)c3nnc(C)[nH]3)CC[C@]3(C)[C@H](CC[C@@H]4[C@@]5(C)CC=C(c6ccc(C(=O)O)cc6)C(C)(C)[C@@H]5CC[C@]43C)[C@@H]12` (stereo partly drawn) [Example 44, 4-((1R,3aS,5aR,5bR,7aR,11aS,11bR,13aR,13bR)-5a,5b,8,8,11a-pentamethyl-3a-(1-(5-methyl-4H-1,2,4-triazol-3-yl)ethylcarbamoyl)-1-(prop-1-en-2-yl)-2,3,3a,4,5,5a,5b,6,7,7a,8,11,11a,11b,12,13,13a,13b-octadecahydro-1H-cyclopenta[a]chrysen-9-yl)benzoic acid], the EC50 is < 100 nM. Same read-out and setting: the figure for `C=C(C)[C@@H]1CC[C@]2(C(=O)N[C@@H](CC(C)C)C(=O)O)CC[C@]3(C)[C@H](CC[C@@H]4[C@@]5(C)CC=C(c6ccc(C(=O)O)cc6)C(C)(C)[C@@H]5CC[C@]43C)[C@@H]12` [Example 59, 4-((1R,3aS,5aR,5bR,7aR,11aS,11bR,13aR,13bR)-3a-((S)-1-carboxy-3-methylbutylcarbamoyl)-5a,5b,8,8,11a-pentamethyl-1-(prop-1-en-2-yl)-2,3,3a,4,5,5a,5b,6,7,7a,8,11,11a,11b,12,13,13a,13b-octadecahydro-1H-cyclopenta[a]chrysen-9-yl)benzoic acid] is < 100 nM; for `C=C(C)[C@@H]1CC[C@]2(C(=O)NCCCN(CC)CCC(=O)O)CC[C@]3(C)[C@H](CC[C@@H]4[C@@]5(C)CC=C(c6ccc(C(=O)O)cc6)C(C)(C)[C@@H]5CC[C@]43C)[C@@H]12` [Example 99, 4-((1R,3aS,5aR,5bR,7aR,11aS,11bR,13aR,13bR)-3a-(3-((2-carboxyethyl)(ethyl)amino)propylcarbamoyl)-5a,5b,8,8,11a-pentamethyl-1-(prop-1-en-2-yl)-2,3,3a,4,5,5a,5b,6,7,7a,8,11,11a,11b,12,13,13a,13b-octadecahydro-1H-cyclopenta[a]chrysen-9-yl)benzoic acid] it is < 100 nM; for `C=C(C)[C@@H]1CC[C@]2(C(=O)NCCN3CCS(=O)(=O)CC3)CC[C@]3(C)[C@H](CC[C@@H]4[C@@]5(C)CC=C(c6ccc(C(=O)O)cc6)C(C)(C)[C@@H]5CC[C@]43C)[C@@H]12` [Example 106, 4-((1R,3aS,5aR,5bR,7aR,11aS,11bR,13aR,13bR)-3a-((2-(1,1-dioxido-4-thiomorpholinyl)ethyl)carbamoyl)-1-isopropenyl-5a,5b,8,8,11a-pentamethyl-2,3,3a,4,5,5a,5b,6,7,7a,8,11,11a,11b,12,13,13a,13b-octadecahydro-1H-cyclopenta[a]chrysen-9-yl)benzoic acid] it is < 100 nM. On the same count and under the same terms, the figure for `C=C(C)[C@@H]1CC[C@]2(C(=O)NCc3nc4ccccc4s3)CC[C@]3(C)[C@H](CC[C@@H]4[C@@]5(C)CC=C(c6ccc(C(=O)O)cc6)C(C)(C)[C@@H]5CC[C@]43C)[C@@H]12` [Example 45, 4-((1R,3aS,5aR,5bR,7aR,11aS,11bR,13aR,13bR)-3a-(benzo[d]thiazol-2-ylmethylcarbamoyl)-5a,5b,8,8,11a-pentamethyl-1-(prop-1-en-2-yl)-2,3,3a,4,5,5a,5b,6,7,7a,8,11,11a,11b,12,13,13a,13b-octadecahydro-1H-cyclopenta[a]chrysen-9-yl)benzoic acid] is < 100 nM; for `C=C(C)[C@@H]1CC[C@]2(C(=O)NCCN)CC[C@]3(C)[C@H](CC[C@@H]4[C@@]5(C)CC=C(c6ccc(C(=O)O)cc6)C(C)(C)[C@@H]5CC[C@]43C)[C@@H]12` [Example 125, 4-((1R,3aS,5aR,5bR,7aR,11aS,11bR,13aR,13bR)-3a-(2-aminoethylcarbamoyl)-5a,5b,8,8,11a-pentamethyl-1-(prop-1-en-2-yl)-2,3,3a,4,5,5a,5b,6,7,7a,8,11,11a,11b,12,13,13a,13b-octadecahydro-1H-cyclopenta[a]chrysen-9-yl)benzoic acid] it is < 100 nM; for `CC(C)[C@@H]1CC[C@]2(C(=O)NCCc3ccccn3)CC[C@]3(C)[C@H](CC[C@@H]4[C@@]5(C)CC[C@H](c6ccc(C(=O)O)cc6)C(C)(C)[C@@H]5CC[C@]43C)[C@@H]12` [Example 54, 4-((1S,3aS,5aR,5bR,7aS,9S,11aS,11bR,13aR,13bR)-1-isopropyl-5a,5b,8,8,11a-pentamethyl-3a-(2-(pyridin-2-yl)ethylcarbamoyl)icosahydro-1H-cyclopenta[a]chrysen-9-yl)benzoic acid] it is < 100 nM. On the same count and under the same terms, next, `C=C(C)[C@@H]1CC[C@]2(C(=O)NCC(N)=O)CC[C@]3(C)[C@H](CC[C@@H]4[C@@]5(C)CC=C(c6ccc(C(=O)O)cc6)C(C)(C)[C@@H]5CC[C@]43C)[C@@H]12` [Example 34, 4-((1R,3aS,5aR,5bR,7aR,11aS,11bR,13aR,13bR)-3a-(2-amino-2-oxoethylcarbamoyl)-5a,5b,8,8,11a-pentamethyl-1-(prop-1-en-2-yl)-2,3,3a,4,5,5a,5b,6,7,7a,8,11,11a,11b,12,13,13a,13b-octadecahydro-1H-cyclopenta[a]chrysen-9-yl)benzoic acid]: < 100 nM; `C=C(C)[C@@H]1CC[C@]2(C(=O)NCc3ccncc3)CC[C@]3(C)[C@H](CC[C@@H]4[C@@]5(C)CC=C(c6ccc(C(=O)O)cc6)C(C)(C)[C@@H]5CC[C@]43C)[C@@H]12` [Example 28, 4-((1R,3aS,5aR,5bR,7aR,11aS,11bR,13aR,13bR)-5a,5b,8,8,11a-pentamethyl-1-(prop-1-en-2-yl)-3a-(pyridin-4-ylmethylcarbamoyl)-2,3,3a,4,5,5a,5b,6,7,7a,8,11,11a,11b,12,13,13a,13b-octadecahydro-1H-cyclopenta[a]chrysen-9-yl)benzoic acid]: < 100 nM. Take `C=C(C)[C@@H]1CC[C@]2(C(=O)NCc3ccoc3)CC[C@]3(C)[C@H](CC[C@@H]4[C@@]5(C)CC=C(c6ccc(C(=O)O)cc6)C(C)(C)[C@@H]5CC[C@]43C)[C@@H]12` [Example 126, 4-((1R,3aS,5aR,5bR,7aR,11aS,11bR,13aR,13bR)-3a-(furan-3-ylmethylcarbamoyl)-5a,5b,8,8,11a-pentamethyl-1-(prop-1-en-2-yl)-2,3,3a,4,5,5a,5b,6,7,7a,8,11,11a,11b,12,13,13a,13b-octadecahydro-1H-cyclopenta[a]chrysen-9-yl)benzoic acid]: the EC50 is < 100 nM. The same measure, in the same setting: next, `C=C(C)[C@@H]1CC[C@]2(C(=O)N[C@@H](CCSC)C(=O)O)CC[C@]3(C)[C@H](CC[C@@H]4[C@@]5(C)CC=C(c6ccc(C(=O)O)cc6)C(C)(C)[C@@H]5CC[C@]43C)[C@@H]12` [Example 63, 4-((1R,3aS,5aR,5bR,7aR,11aS,11bR,13aR,13bR)-3a-((S)-1-carboxy-3-(methylthio)propylcarbamoyl)-5a,5b,8,8,11a-pentamethyl-1-(prop-1-en-2-yl)-2,3,3a,4,5,5a,5b,6,7,7a,8,11,11a,11b,12,13,13a,13b-octadecahydro-1H-cyclopenta[a]chrysen-9-yl)benzoic acid]: > 100 nM; `C=C(C)[C@@H]1CC[C@]2(C(=O)NCCCN3CCS(=O)(=O)CC3)CC[C@]3(C)[C@H](CC[C@@H]4[C@@]5(C)CC=C(c6ccc(C(=O)O)c(C(=O)O)c6)C(C)(C)[C@@H]5CC[C@]43C)[C@@H]12` [Example 112, 4-((1R,3aS,5aR,5bR,7aR,11aS,11bR,13aR,13bR)-3a-((3-(1,1-dioxido-4-thiomorpholinyl)propyl)carbamoyl)-1-isopropenyl-5a,5b,8,8,11a-pentamethyl-2,3,3a,4,5,5a,5b,6,7,7a,8,11,11a,11b,12,13,13a,13b-octadecahydro-1H-cyclopenta[a]chrysen-9-yl)phthalic acid]: < 100 nM. On the same count and under the same terms, the figure for `C=C(C)[C@@H]1CC[C@]2(C(=O)NCCN(CCC)CCC(=O)O)CC[C@]3(C)[C@H](CC[C@@H]4[C@@]5(C)CC=C(c6ccc(C(=O)O)cc6)C(C)(C)[C@@H]5CC[C@]43C)[C@@H]12` [Example 93, 4-((1R,3aS,5aR,5bR,7aR,11aS,11bR,13aR,13bR)-3a-(2-((2-carboxyethyl)(propyl)amino)ethylcarbamoyl)-5a,5b,8,8,11a-pentamethyl-1-(prop-1-en-2-yl)-2,3,3a,4,5,5a,5b,6,7,7a,8,11,11a,11b,12,13,13a,13b-octadecahydro-1H-cyclopenta[a]chrysen-9-yl)benzoic acid] is < 100 nM; for `CC(C)[C@@H]1CC[C@]2(C(=O)NCCC(=O)O)CC[C@]3(C)[C@H](CC[C@@H]4[C@@]5(C)CC[C@H](c6ccc(C(=O)O)cc6)C(C)(C)[C@@H]5CC[C@]43C)[C@@H]12` [Example 124, 4-((1S,3aS,5aR,5bR,7aS,9S,11aS,11bR,13aR,13bR)-3a-(2-carboxyethylcarbamoyl)-1-isopropyl-5a,5b,8,8,11a-pentamethylicosahydro-1H-cyclopenta[a]chrysen-9-yl)benzoic acid] it is < 100 nM.
